In US20060069132A1, “Azolecarboxamide herbicides” (priority 2004, published 2006):

Legend:
Experiment in all cases: Test C pre-/postemergence herbicide test
morningglory = format: in vivo, Ipomoea coccinea; parameters: key to Plant response rating, Morningglory: 0 = no effect, 100 = complete control; settings: for Plant response rating (0 = no effect, 100 = complete control), Morningglory: 125 g ai/ha
Outline: (§1)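 Emerged plants at the 1- to 4-leaf stage (2–18 cm), or freshly planted seeds, received test chemicals in a non-phytotoxic solvent mixture with surfactant. Response was visually scored against controls after 12 to 14 days in the greenhouse, on a 0 (no effect) to 100 (complete control) scale.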

woolly cupgrass = format: in vivo, Eriochloa villosa
Outline: as §1

kochia = format: in vivo, Kochia scoparia
Outline: as §1

soybean = format: in vivo, Glycine max; settings: preemergence; for Plant response rating (0 = no effect, 100 = complete control), Soybean: 125 g ai/ha
Outline: as §1

giant foxtail = format: in vivo, Setaria faberi
Outline: as §1

bermudagrass = format: in vivo, Cynodon dactylon
Outline: as §1

velvetleaf = format: in vivo, Abutilon theophrasti
Outline: as §1

yellow nutsedge = format: in vivo, Cyperus esculentus; settings: preemergence; for Plant response rating (0 = no effect, 100 = complete control), Nutsedge, Yellow: 125 g ai/ha
Outline: as §1

corn = format: in vivo, Zea mays
Outline: as §1

cocklebur = format: in vivo, Xanthium strumarium
Outline: as §1

goosegrass = format: in vivo, Eleusine indica
Outline: as §1

[1] = 62 g ai/ha, preemergence, scale 0 to 100
[2] = 250 g ai/ha, scale 0-100, preemergence
[3] = postemergence, 62 g ai/ha, scale 0 to 100
[4] = Postemergence, 250 g ai/ha, scale 0 to 100, 0 no effect, 100 complete control
[5] = postemergence, 125 g ai/ha, scale 0 to 100
[6] = 62 g ai/ha, preemergence, scale 0 to 100, 0 no effect, 100 complete control
[7] = postemergence, 31 g ai/ha, scale 0 to 100
[8] = 500 g ai/ha, scale 0 to 100 (0 no effect, 100 complete control), visual, 12 to 14 days, preemergence
[9] = 500 g ai/ha, scale 0 to 100 (0 no effect, 100 complete control), visual, 12 to 14 days

SMILES: CCOC(=O)c1cccc(NC(=O)c2nn(C(C)(C)CC)nc2CC)c1 [Compound 375]
- Plant response rating, Morningglory (morningglory; [1]): 0
- Plant response rating (0 = no effect, 100 = complete control), Morningglory (morningglory; preemergence): 0
- Plant response rating, Morningglory (morningglory; [2]): 5
- Plant response rating, Morningglory (morningglory; [3]): 10
- Plant response rating, Cupgrass, Woolly (woolly cupgrass; [1]): 60
- Plant response rating (0 = no effect, 100 = complete control), Cupgrass, Woolly (woolly cupgrass; 125 g ai/ha, preemergence): 70
- Plant response rating, Cupgrass, Woolly (woolly cupgrass; [2]): 70
- Plant response rating, Cupgrass, Woolly (woolly cupgrass; [4]): 45
- Plant response rating, Cupgrass, Woolly (woolly cupgrass; [5]): 30
- Plant response rating, Cupgrass, Woolly (woolly cupgrass; [3]): 30
- Plant response rating, Kochia (kochia; [1]): 80
- Plant response rating (0 = no effect, 100 = complete control), Kochia (kochia; 125 g ai/ha, preemergence): 100
- Plant response rating, Kochia (kochia; [2]): 100
- Plant response rating, Kochia (kochia; [4]): 90
- Plant response rating, Kochia (kochia; [5]): 85
- Plant response rating, Kochia (kochia; [3]): 70
- Plant response rating, Soybean (soybean; 62 g ai/ha, scale 0 to 100): 0
- Plant response rating (0 = no effect, 100 = complete control), Soybean (soybean): 0
- Plant response rating, Soybean (soybean; 250 g ai/ha, scale 0-100): 0
- Plant response rating, Foxtail, Giant (giant foxtail; [1]): 70
- Plant response rating (0 = no effect, 100 = complete control), Foxtail, Giant (giant foxtail; 125 g ai/ha, preemergence): 80
- Plant response rating, Foxtail, Giant (giant foxtail; [4]): 60
- Plant response rating, Foxtail, Giant (giant foxtail; [5]): 45
- Plant response rating, Foxtail, Giant (giant foxtail; [3]): 40
- Plant response rating, Bermudagrass (bermudagrass; 31 g ai/ha, scale 0 to 100, 0 no effect, 100 complete control, last section of Table C (species set of preemergence test)): 95
- Plant response rating, Bermudagrass (bermudagrass; [6]): 100
- Plant response rating (0 = no effect, 100 = complete control), Bermudagrass (bermudagrass; 125 g ai/ha, preemergence): 100
- Plant response rating, Bermudagrass (bermudagrass; [2]): 100
- Plant response rating, Bermudagrass (bermudagrass; [4]): 60
- Plant response rating, Bermudagrass (bermudagrass; [5]): 30
- Plant response rating, Bermudagrass (bermudagrass; [7]): 5
- Plant response rating, Bermudagrass (bermudagrass; [3]): 20
- Plant response rating, Velvetleaf (velvetleaf; [1]): 0
- Plant response rating (0 = no effect, 100 = complete control), Velvetleaf (velvetleaf; 125 g ai/ha, preemergence): 30
- Plant response rating, Velvetleaf (velvetleaf; [2]): 80
- Plant response rating, Velvetleaf (velvetleaf; [5]): 85
- Plant response rating, Velvetleaf (velvetleaf; [3]): 60
- Plant response rating, Nutsedge, Yellow (yellow nutsedge; 31 g ai/ha, scale 0 to 100, last section of Table C): 0
- Plant response rating, Nutsedge, Yellow (yellow nutsedge; 62 g ai/ha, scale 0 to 100): 0
- Plant response rating (0 = no effect, 100 = complete control), Nutsedge, Yellow (yellow nutsedge): 0
- Plant response rating, Nutsedge, Yellow (yellow nutsedge; 250 g ai/ha, scale 0-100): 0
- Plant response rating, Corn (corn; [1]): 0
- Plant response rating (0 = no effect, 100 = complete control), Corn (corn; 125 g ai/ha, preemergence): 5
- Plant response rating, Corn (corn; [2]): 5
- Plant response rating, Corn (corn; [4]): 20
- Plant response rating, Corn (corn; [5]): 15
- Plant response rating, Corn (corn; [3]): 10
- Plant response rating, Cocklebur (cocklebur; [1]): 0
- Plant response rating (0 = no effect, 100 = complete control), Cocklebur (cocklebur; 125 g ai/ha, preemergence): 0
- Plant response rating, Cocklebur (cocklebur; [2]): 0
- Plant response rating, Cocklebur (cocklebur; [4]): 15
- Plant response rating, Cocklebur (cocklebur; [5]): 10
- Plant response rating, Cocklebur (cocklebur; [7]): 0
- Plant response rating, Cocklebur (cocklebur; [3]): 10
- Plant response rating, Goosegrass (goosegrass; [1]): 60
- Plant response rating (0 = no effect, 100 = complete control), Goosegrass (goosegrass; 125 g ai/ha, preemergence): 100
- Plant response rating, Goosegrass (goosegrass; [2]): 100
- Plant response rating, Goosegrass (goosegrass; [4]): 50
- Plant response rating, Goosegrass (goosegrass; [5]): 15
- Plant response rating, Goosegrass (goosegrass; [3]): 15

SMILES: C=CCNC(=O)c1cccc(NC(=O)c2nn(C(C)(C)C)nc2CC)c1 [Compound 414]
- Plant response rating, Morningglory (morningglory; [1]): 10
- Plant response rating (0 = no effect, 100 = complete control), Morningglory (morningglory; preemergence): 55
- Plant response rating, Morningglory (morningglory; [8]): 95
- Plant response rating, Cupgrass, Woolly (woolly cupgrass; [1]): 0
- Plant response rating (0 = no effect, 100 = complete control), Cupgrass, Woolly (woolly cupgrass; 125 g ai/ha, preemergence): 80
- Plant response rating, Cupgrass, Woolly (woolly cupgrass; [2]): 95
- Plant response rating, Cupgrass, Woolly (woolly cupgrass; [8]): 100
- Plant response rating, Kochia (kochia; [1]): 60
- Plant response rating (0 = no effect, 100 = complete control), Kochia (kochia; 125 g ai/ha, preemergence): 75
- Plant response rating, Kochia (kochia; [2]): 80
- Plant response rating, Kochia (kochia; [8]): 100
- Plant response rating, Soybean (soybean; 62 g ai/ha, scale 0 to 100): 0
- Plant response rating (0 = no effect, 100 = complete control), Soybean (soybean): 20
- Plant response rating, Soybean (soybean; [9]): 65
- Plant response rating, Foxtail, Giant (giant foxtail; [1]): 75
- Plant response rating (0 = no effect, 100 = complete control), Foxtail, Giant (giant foxtail; 125 g ai/ha, preemergence): 95
- Plant response rating, Foxtail, Giant (giant foxtail; [2]): 100
- Plant response rating, Foxtail, Giant (giant foxtail; [8]): 100
- Plant response rating, Bermudagrass (bermudagrass; [6]): 100
- Plant response rating (0 = no effect, 100 = complete control), Bermudagrass (bermudagrass; 125 g ai/ha, preemergence): 100
- Plant response rating, Bermudagrass (bermudagrass; [2]): 100
- Plant response rating, Bermudagrass (bermudagrass; [8]): 100
- Plant response rating, Velvetleaf (velvetleaf; [1]): 90
- Plant response rating (0 = no effect, 100 = complete control), Velvetleaf (velvetleaf; 125 g ai/ha, preemergence): 100
- Plant response rating, Velvetleaf (velvetleaf; [8]): 100
- Plant response rating, Nutsedge, Yellow (yellow nutsedge; 62 g ai/ha, scale 0 to 100): 0
- Plant response rating (0 = no effect, 100 = complete control), Nutsedge, Yellow (yellow nutsedge): 0
- Plant response rating, Nutsedge, Yellow (yellow nutsedge; [9]): 20
- Plant response rating, Corn (corn; [1]): 0
- Plant response rating (0 = no effect, 100 = complete control), Corn (corn; 125 g ai/ha, preemergence): 0
- Plant response rating, Corn (corn; [2]): 50
- Plant response rating, Corn (corn; [8]): 80
- Plant response rating, Cocklebur (cocklebur; [1]): 0
- Plant response rating (0 = no effect, 100 = complete control), Cocklebur (cocklebur; 125 g ai/ha, preemergence): 15
- Plant response rating, Cocklebur (cocklebur; [2]): 20
- Plant response rating, Cocklebur (cocklebur; [8]): 30
- Plant response rating, Goosegrass (goosegrass; [1]): 95
- Plant response rating (0 = no effect, 100 = complete control), Goosegrass (goosegrass; 125 g ai/ha, preemergence): 100
- Plant response rating, Goosegrass (goosegrass; [2]): 100
- Plant response rating, Goosegrass (goosegrass; [8]): 100
